What is called GI50 is the concentration that inhibits growth by half.

In patent publication US10851065B2 (Eisai R&D Management Co., Ltd., priority 2015, dated 2020) one finds GI50 data, which are given here for one compound.

Experiment [1] has as its system MCF7-WT cells (MCF7 ER-alpha wildtype). The experiment in a line: In vitro proliferation (viability) assay, CellTiter-Glo, MCF7-WT cells. The following applies: Homo sapiens; MCF7-WT cells, 6 days, CTG vs day 0; mean ± SD-type spread (n); read-out: GI50 WT. The class given is cell-based.
For experiment [2], the system named is MCF7-Y537S cells (MCF7 ER-alpha Y537S mutant). Briefly: In vitro proliferation (viability) assay, CellTiter-Glo, MCF7-Y537S cells. The class given is cell-based. Conditions: Homo sapiens; MCF7-Y537S cells, 6 days, CTG vs day 0; mean ± SD-type spread (n); read-out: GI50 MUT (Y537S). An outline of the steps:
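Stable lentiviral MCF7 lines expressing WT or Y537S ESR1 seeded at 1500 cells/well; next day dosed with 10-point 1:4 dilutions in triplicate, with media/compound refreshed on day 3. CellTiter-Glo luminescence on day 6 compared with a day 0 reading to give GI50.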
(In ATP-based viability assays light output follows the ATP content of the culture.)

The structures appear in SMILES notation.

In the case of `CC/C(=C(/c1ccc(OCCNC/C=C/C(=O)N(C)C)cc1)c1ccc2[nH]ncc2c1)c1ccccc1` [compound 1, (E)-4-((2-(4-((E)-1-(1H-indazol-5-yl)-2-phenylbut-1-en-1-yl)phenoxy)ethyl)amino)-N,N-dimethylbut-2-enamide], the figures for the GI50 in experiment [1] and in experiment [2] were 1.69 ± 0.54 nM and 20.6 ± 7.01 nM, respectively.
